Here are results for 18 compounds from ChEMBL document CHEMBL1926539, “Discovery of novel selective inhibitors of Staphylococcus aureus β-ketoacyl acyl carrier protein synthase III” (Eur J Med Chem, 2012).

Usually MIC stands for the smallest concentration in the dilution series that meets the test's criterion for growth inhibition. Broadly, the Kd is the free concentration of one partner at which half of the binding sites on the other are occupied at equilibrium, for simple one-to-one binding. The IC50 is the concentration that inhibits the measured activity by half. Read a high IC50 as a need for much substance.

The subject of one series is Enterococcus faecalis. The experiment in a line: Antimicrobial activity against Enterococcus faecalis KCTC 2011 after 20 hrs by 2 fold serial broth dilution method. It counts as functional. The conditions noted are these: KCTC 2011, 20 h.
A short description of series [1]: Inhibition of Staphylococcus aureus recombinant GST-tagged KAS3 expressed in Escherichia coli (DE3) at 1:10 protein to drug ratio by fluorescence quenching analysis.
Series [2] has as its system Staphylococcus aureus. As to the kind of experiment: Antimicrobial activity against Staphylococcus aureus KCTC 1621 after 20 hrs by 2 fold serial broth dilution method. It counts as functional. Conditions: KCTC 1621, 20 h. For orientation: In broth dilution the organism is exposed to a series of concentrations in liquid medium.
The test system of the next series is Escherichia coli. As to the kind of experiment: Antimicrobial activity against Escherichia coli KCTC 1682 after 20 hrs by 2 fold serial broth dilution method. Conditions: KCTC 1682, 20 h. It counts as functional.
Series [3] deals with Staphylococcus aureus. As to the kind of experiment: Antimicrobial activity against methicillin-resistant Staphylococcus aureus CCARM 3114 after 20 hrs by 2 fold serial broth dilution method. It counts as functional. Conditions: CCARM 3114, 20 h.
In another series the test system is Enterococcus faecium. The experiment in a line: Antimicrobial activity against vancomycin-resistant Enterococcus faecium clinical isolate after 20 hrs by 2 fold serial broth dilution method. It counts as functional.
Series [4] deals with NIH3T3. The experiment in a line: Cytotoxicity against mouse NIH/3T3 cells after 24 hrs by MTT assay. It counts as cell-based. The conditions noted are these: NIH3T3, 24 h. For orientation: Formazan colour is commonly taken as a measure of viable cells.
The subject of series [5] is NIH3T3. The experiment in a line: Cytotoxicity against mouse NIH/3T3 assessed as cell survival at MIC after 24 hrs by MTT assay. It counts as cell-based. Conditions: nih3t3, 24 h.
Series [6] in a line: Cytotoxicity against mouse NIH/3T3 cells assessed as cell survival at 100 nM after 24 hrs by MTT assay. Conditions: read-out: Activity. It counts as cell-based, NIH3T3.

Converted amounts (≈) assume the structure as drawn.

For the compound `Nc1ccc(NC(=O)NC2CCCCC2)cc1[N+](=O)[O-]`, the MIC with Enterococcus faecalis was 128 µg/mL (≈ 460 µM); against Staphylococcus aureus [2] it was > 512 µg/mL; in the series on Escherichia coli, > 512 µg/mL; against Staphylococcus aureus [3], > 512 µg/mL; against Enterococcus faecium it was 256 µg/mL (≈ 920 µM). Besides, in [1], the Kd amounted to 649 µM.

For `O=C(N/N=C/c1ccc(O)c(O)c1O)c1ccc(Cl)cc1Cl`, the MIC against Enterococcus faecalis was 32 µg/mL (≈ 93.8 µM); against Staphylococcus aureus [2] it was 4 µg/mL (≈ 11.7 µM); in the series on Escherichia coli it was 64 µg/mL (≈ 188 µM); in the series on Staphylococcus aureus [3] it was 4 µg/mL (≈ 11.7 µM); with Enterococcus faecium, 32 µg/mL (≈ 93.8 µM). Moreover, the IC50 in the series with NIH3T3 [4] was found to be 10.9 µM. In series [1], the Kd stood at 0.0072 µM. The Activity result in the series on NIH3T3 [5] is reported as “Non-toxic”.

Take `CCOC(=O)/C(C#N)=C/c1ccc(O)cc1O`: the MIC in the series on Enterococcus faecalis is 256 µg/mL (≈ 1100 µM); against Staphylococcus aureus [2], > 512 µg/mL; in the series with Escherichia coli it was > 512 µg/mL; with Staphylococcus aureus [3], 256 µg/mL (≈ 1100 µM); against Enterococcus faecium, > 512 µg/mL. In addition, the Kd in [1] was found to be 44 µM.

For `CCOC(=O)N/N=C/c1ccc(O)cc1O`, the MIC is > 512 µg/mL in the series with Enterococcus faecalis; 256 µg/mL (≈ 1140 µM) against Staphylococcus aureus [2]; > 512 µg/mL in the series with Escherichia coli; 512 µg/mL (≈ 2280 µM) in the series with Staphylococcus aureus [3]; 256 µg/mL (≈ 1140 µM) against Enterococcus faecium. The Kd in series [1] amounted to 1.48 µM.

Regarding `CCCCCC12CCC(O)(CC1)CC2O` (stereo not given), the MIC against Enterococcus faecalis, against Staphylococcus aureus [2], in the series with Escherichia coli, with Staphylococcus aureus [3] and against Enterococcus faecium was > 512 µg/mL throughout. The Kd in series [1] was > 1000 µM.

Regarding `O=[N+]([O-])c1ccccc1N/N=C/c1ccc(O)c(O)c1`, the MIC was 256 µg/mL (≈ 937 µM) against Enterococcus faecalis; > 512 µg/mL with Staphylococcus aureus [2]; > 512 µg/mL in the series with Escherichia coli; > 512 µg/mL in the series on Staphylococcus aureus [3]; 256 µg/mL (≈ 937 µM) in the series with Enterococcus faecium. In series [1], the Kd was found to be 3.18 µM.

In the case of `Oc1ccc(/C=N/Nc2nccnc2Cl)c(O)c1`, the MIC with Enterococcus faecalis is > 512 µg/mL; in the series on Staphylococcus aureus [2] it was 1 µg/mL (≈ 3.78 µM); in the series on Escherichia coli, > 512 µg/mL; against Staphylococcus aureus [3], 1 µg/mL (≈ 3.78 µM); in the series on Enterococcus faecium, 32 µg/mL (≈ 121 µM). The IC50 with NIH3T3 [4] was 10.3 µM. Further, the equilibrium dissociation constant (Kd) in [1] was determined as 0.0003 µM. Besides, the Activity result with NIH3T3 [5] is given as “Non-toxic”.

Turning to `Cc1nc(CC(=O)c2c(C)cc(O)cc2O)cs1`, the MIC with Enterococcus faecalis, with Staphylococcus aureus [2], against Escherichia coli, in the series with Staphylococcus aureus [3] and in the series with Enterococcus faecium was > 512 µg/mL throughout. Moreover, the Kd in series [1] was > 1000 µM.

`Cc1n[nH]c(C)c1CCC(=O)N/N=C/c1ccc(O)cc1O`: the MIC is > 512 µg/mL against Enterococcus faecalis; 128 µg/mL (≈ 423 µM) against Staphylococcus aureus [2]; 256 µg/mL (≈ 847 µM) with Escherichia coli; 128 µg/mL (≈ 423 µM) in the series with Staphylococcus aureus [3]; > 512 µg/mL with Enterococcus faecium. The Kd in series [1] amounted to 0.23 µM.

In the case of `Cc1cccc(NC(=O)CC2SC(=O)NC2=O)c1` (stereo not given), the MIC in the series with Enterococcus faecalis, against Staphylococcus aureus [2], against Escherichia coli, with Staphylococcus aureus [3] and against Enterococcus faecium was > 512 µg/mL in each case. The equilibrium dissociation constant (Kd) in series [1] is > 1000 µM.

For the compound `C=C/C(C)=C/[C@@]1(C)SC(=O)C(C)=C1O` [THIOLACTOMYCIN], in series [6], the viability at 24 h, 0.1 µM was determined as 85%. Moreover, the Kd in [1] came to 55.4 µM. Further, in the series on Enterococcus faecium, it took 128 µg/mL (≈ 609 µM) to inhibit growth (MIC).

As to `Cc1nc2ccccc2c(=O)n1/N=C/c1ccc(O)cc1O`, the MIC against Enterococcus faecalis, in the series with Staphylococcus aureus [2], in the series on Escherichia coli, in the series on Staphylococcus aureus [3] and against Enterococcus faecium was > 512 µg/mL in each case. Further, in series [1], the Kd came out at 0.0009 µM.

On to `NC(=O)C1(C(N)=O)OC1c1ccc(Cl)c(Cl)c1` (stereo not given), for which the MIC against Enterococcus faecalis was 256 µg/mL (≈ 931 µM); in the series on Staphylococcus aureus [2] it was 256 µg/mL (≈ 931 µM); in the series with Escherichia coli, 256 µg/mL (≈ 931 µM); with Staphylococcus aureus [3], 256 µg/mL (≈ 931 µM); with Enterococcus faecium, 32 µg/mL (≈ 116 µM). Also, the Kd in series [1] was > 1000 µM.

Take `Oc1ccc(/C=N/c2ccc(Cl)cc2Cl)c(O)c1`: the MIC against Enterococcus faecalis is > 512 µg/mL; against Staphylococcus aureus [2] it was 128 µg/mL (≈ 454 µM); against Escherichia coli, 64 µg/mL (≈ 227 µM); with Staphylococcus aureus [3], 128 µg/mL (≈ 454 µM); in the series on Enterococcus faecium it was > 512 µg/mL. The Kd in series [1] was found to be 0.72 µM.

As for `Oc1ccc(/C=N/Nc2ccc(C(F)(F)F)cn2)c(O)c1`, the viability at 24 h, 0.1 µM in [6] stood at 67%. For the same compound, the MIC worked out at 64 µg/mL (≈ 215 µM) in the series on Enterococcus faecalis; 2 µg/mL (≈ 6.73 µM) in the series on Staphylococcus aureus [2]; 512 µg/mL (≈ 1720 µM) against Escherichia coli; 4 µg/mL (≈ 13.5 µM) against Staphylococcus aureus [3]; 32 µg/mL (≈ 108 µM) with Enterococcus faecium. In addition, the Kd in series [1] was found to be 0.0008 µM.

With `Oc1ccc(/C=N/c2cc(Cl)cc(Cl)c2)c(O)c1`, the MIC is 512 µg/mL (≈ 1810 µM) against Enterococcus faecalis; 64 µg/mL (≈ 227 µM) in the series with Staphylococcus aureus [2]; 64 µg/mL (≈ 227 µM) against Escherichia coli; 128 µg/mL (≈ 454 µM) in the series with Staphylococcus aureus [3]; > 512 µg/mL against Enterococcus faecium. In [1], the dissociation constant (Kd) is 0.61 µM.

Consider `COc1ccccc1NC(=O)c1nc[nH]n1`, for which the MIC in the series on Enterococcus faecalis, against Staphylococcus aureus [2], with Escherichia coli, in the series with Staphylococcus aureus [3] and against Enterococcus faecium was > 512 µg/mL throughout. In addition, the Kd in [1] turned out to be 34.1 µM.

As for `OC[C@@H]1O[C@H](Oc2cccc(Cl)c2)[C@H](O)[C@H](O)[C@H]1O`, the MIC in the series on Enterococcus faecalis was > 512 µg/mL; against Staphylococcus aureus [2], > 512 µg/mL; against Escherichia coli it was > 512 µg/mL; against Staphylococcus aureus [3], > 512 µg/mL; against Enterococcus faecium it was 256 µg/mL (≈ 881 µM). Moreover, the Kd in [1] came to 0.36 µM.
